Counter-ions that a name gives are not always drawn.
The compounds below were run against T1, human 5-HT6 receptor (Homo sapiens, UniProt P50406) (assay: Human 5-HT6 Receptor Binding Assay ([3H]LSD displacement, scintillation beads)). Settings: membranes of CHO-K1 cells with recombinant human 5-HT6, 4 nM [3H]LSD; Table 1, class symbols; read-out: h5-HT6 (Ki).
T1 construct: host or cells: CHO-K1 cells, stably transfected; membranes prepared in house
T1 sequence (P50406 whole entry): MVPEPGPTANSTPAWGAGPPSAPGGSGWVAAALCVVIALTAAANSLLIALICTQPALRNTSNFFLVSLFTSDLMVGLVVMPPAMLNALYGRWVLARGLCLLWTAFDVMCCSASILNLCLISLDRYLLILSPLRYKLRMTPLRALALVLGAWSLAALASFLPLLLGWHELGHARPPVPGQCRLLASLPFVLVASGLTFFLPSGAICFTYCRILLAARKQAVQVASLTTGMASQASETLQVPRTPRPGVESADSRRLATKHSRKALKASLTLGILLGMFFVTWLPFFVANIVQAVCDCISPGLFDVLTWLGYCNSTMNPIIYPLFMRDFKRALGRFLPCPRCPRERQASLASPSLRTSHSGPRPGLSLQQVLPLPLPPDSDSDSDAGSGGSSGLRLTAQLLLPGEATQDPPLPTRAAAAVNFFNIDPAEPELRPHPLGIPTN

| SMILES | Ki |
| --- | --- |
| COCC1NCCc2c1oc1ccc(S(=O)(=O)c3cccc(F)c3)cc21 (centres unmarked) [Example 515] | > 1000 nM |
| O=S(=O)(c1ccccc1)c1ccc2c(c1)OC1CNCCC21 (centres unmarked) [Example 326, 7-(phenylsulfonyl)-1,2,3,4,4a,9a-hexahydro[1]benzofuro[2,3-c]pyridine] | < 500 nM |
| O=S(=O)(Oc1ccc2c(c1)OC1CNCCC21)c1ccc(C(F)(F)F)cc1 (centres unmarked) [Example 673] | < 500 nM |
| O=S(=O)(c1ccc2c(c1)OC1CNCCC21)c1cccc2c1OCCO2 (centres unmarked) [Example 457] | < 500 nM |
| CC1(C)NCCc2c1oc1cc(S(=O)(=O)c3ccccc3)ccc21 [Example 292] | < 500 nM |
| O=S(=O)(c1ccc2c(c1)OC1CNCCC21)c1cc(F)cc(F)c1F (centres unmarked) [Example 400] | < 500 nM |
| [O-][S+](c1ccc2c3c(oc2c1)CNCC3)c1c(F)c(F)cc(F)c1F (centres unmarked) [Example 224] | < 500 nM |
| O=S(=O)(c1ccc2c3c(oc2c1)CNCC3)C1CCCCC1 [Example 233] | > 1000 nM |
| O=S(=O)(c1ccccc1)c1ccc2c3c([nH]c2c1)C1(CCOC1)NCC3 (stereo not drawn) [Example 546, 7-(Phenylsulfonyl)-2,3,4,4′,5′,9-hexahydrospiro[beta-carboline-1,3′-furan]trifluoroacetate] | < 500 nM |
| O=S(=O)(c1ccc2c3c(oc2c1)CNCC3)c1ccccc1F [Example 231] | < 500 nM |
| CC(C)N1CCC2c3ccc(OS(=O)(=O)c4ccc(Cl)cc4)cc3OC2C1 (centres unmarked) [Example 798, 2-(Propan-2-yl)-1,2,3,4,4a,9a-hexahydro[1]benzofuro[2,3-c]pyridin-7-yl-4-chlorobenzenesulfonate] | > 1000 nM |
| O=[N+]([O-])c1ccc(S(=O)(=O)c2cccc3c2OC2CNCCC32)cc1 (centres unmarked) [Example 190] | > 1000 nM |
| Cc1cccc(S(=O)(=O)c2ccc3oc4c(c3c2)CCNC4)n1 [Example 350] | < 500 nM |
| CC(C)COc1cc(F)cc(S(=O)(=O)c2ccc3c(c2)OC2CNCCC32)c1 (centres unmarked) [Example 414] | < 500 nM |
| O=S(=O)(Nc1ccc2c(c1)C1CCNCC1O2)c1cc2ccccc2o1 (centres unmarked) [Example 833] | 500 to 1000 nM |
| O=S(=O)(c1cccc(OCC2CCCCO2)c1)c1ccc2c(c1)OC1CNCCC21 (centres unmarked) [Example 553] | < 500 nM |
| CC1(C)NCCc2c1oc1cc(S(=O)(=O)c3cncc(Cl)c3)ccc21 [Example 376] | < 500 nM |
| O=S(=O)(c1ccc2oc3c(c2c1)CCNC3)c1ccccc1F [Example 277] | < 500 nM |
| COCCCOc1cccc(S(=O)(=O)c2ccc3c(c2)OC2CNCCC32)c1 (centres unmarked) [Example 576] | < 500 nM |
| O=S(=O)(c1ccc(Cl)c(C(F)(F)F)c1)c1ccc2oc3c(c2c1)CCNC3 [Example 257] | < 500 nM |
| O=S(=O)(c1cccc(F)c1)c1ccc2c3c(oc2c1)C1(CCCC1)NCC3 [Example 28, 7-[(3-fluorophenyl)sulfonyl]-3,4-dihydro-2H-spiro[1-benzofuro[2,3-c]pyridine-1,1′-cyclopentane]] | < 500 nM |
| Cc1ccc(F)cc1S(=O)(=O)c1ccc2c3c(oc2c1)CNCC3 [Example 206] | < 500 nM |
| CC(=O)NCCC1NCCc2c1oc1cc(S(=O)(=O)c3cccc(Cl)c3)ccc21 (racemic) [Example 540, N-(2-{7-[(3-chlorophenyl)sulfonyl]-1,2,3,4-tetrahydro[1]benzofuro[2,3-c]pyridin-1-yl}ethyl)acetamide] | < 500 nM |
| O=S(=O)(c1cccc(F)c1)c1ccc2oc3c(c2c1)CCNC3C1CC1 (centres unmarked) [Example 517] | < 500 nM |

| SMILES | Ki |
| --- | --- |
| COc1ccc(S(=O)(=O)Oc2ccc3c(c2)C2CCNCC2O3)cc1OC (centres unmarked) [Example 732] | 500 to 1000 nM |
| O=S(=O)(c1ccc2oc3c(c2c1)CCNC3)c1cccnc1OCC(F)(F)F [Example 448] | < 500 nM |
| COc1cccc(S(=O)(=O)c2cccc3c2OC2CNCCC32)c1 (centres unmarked) [Example 182] | < 500 nM |
| Cc1ccc(NS(=O)(=O)c2ccc3c(c2)C2CCNCC2O3)cc1F (centres unmarked) [Example 851] | > 1000 nM |
| O=S(=O)(c1cccc(Cl)c1)c1ccc2c3c(oc2c1)CN(Cc1ccccc1)CC3 [Example 603] | < 500 nM |
| O=S(=O)(c1cc(F)cc(Cl)c1)c1ccc2oc3c(c2c1)CCNC3 [Example 255] | < 500 nM |
| O=S(=O)(c1cc(F)cc(F)c1)c1ccc2c(c1)OC1CNCCC21 (centres unmarked) [Example 158] | < 500 nM |
| O=S(=O)(c1ccc2c(c1)OC1CNCCC21)c1ccccc1-c1ccccc1 (centres unmarked) [Example 153] | < 500 nM |
| COC(=O)c1cccc(S(=O)(=O)c2ccc3c4c(oc3c2)CNCC4)c1 [Example 219] | < 500 nM |
| [O-][S+](c1ccc2c3c(oc2c1)CNCC3)c1cc(F)ccc1F (centres unmarked) [Example 222] | < 500 nM |
| COc1cccc(NS(=O)(=O)c2ccc3c(c2)C2CCNCC2O3)c1 (centres unmarked) [Example 850] | > 1000 nM |
| CC12CCNCC1Oc1ccc(OS(=O)(=O)c3cc4ccccc4o3)cc12 (centres unmarked) [Example 764] | 500 to 1000 nM |
| O=S(=O)(c1ccccc1)c1ccc2c(c1)C1CCNCC1O2 (centres unmarked) [Example 334, 6-(phenylsulfonyl)-1,2,3,4,4a,9a-hexahydro[1]benzofuro[2,3-c]pyridine] | 500 to 1000 nM |
| O=S(=O)(c1ccc(Cl)c(Cl)c1)c1ccc2c(c1)C1CCNCC1O2 (centres unmarked) [Example 172] | < 500 nM |
| O=S(=O)(Oc1ccc2c(c1)OC1CN(C3CCC3)CCC21)c1ccc(Cl)cc1 (centres unmarked) [Example 800] | > 1000 nM |
| O=S(=O)(c1ccc2c(c1)OC1CNCCC21)c1cccc2c1OC(F)(F)O2 (centres unmarked) [Example 469] | < 500 nM |
| O=S(=O)(Oc1ccc2c(c1)OC1CNCCC21)c1cccc2nsnc12 (centres unmarked) [Example 669] | < 500 nM |
| O=S(=O)(c1ccc2c(c1)OCCO2)c1ccc2c(c1)C1CCNCC1O2 (centres unmarked) [Example 180] | > 1000 nM |
| O=S(=O)(Oc1ccc2c(c1)OC1CNCCC21)c1ccc(Cl)c(Cl)c1 (centres unmarked) [Example 676] | < 500 nM |
| CC(C)C(=O)NCC1(C)NCCc2c1oc1cc(S(=O)(=O)c3cccc(F)c3)ccc21 (centres unmarked) [Example 491, N-[7-(3-Fluoro-benzenesulfonyl)-1-methyl-1,2,3,4-tetrahydro-benzofuro[2,3-c]pyridin-1-ylmethyl]-isobutyramide] | < 500 nM |
| O=S(=O)(Oc1ccc2c(c1)OC1CNCCC21)c1ccc(OC(F)(F)F)cc1 (centres unmarked) [Example 682] | < 500 nM |
| COCCOc1cccc(S(=O)(=O)c2ccc3c(c2)OC2CNCCC32)c1 (centres unmarked) [Example 558] | 500 to 1000 nM |
| O=S(=O)(c1ccccc1)c1ccc2c(c1)OC1CN(C3CCC3)CCC21 (centres unmarked) [Example 606, 2-Cyclobutyl-7-(phenylsulfonyl)-1,2,3,4,4a,9a-hexahydro[1]benzofuro[2,3-c]pyridine trifluoroacetic acid salt] | < 500 nM |
| CC(C)c1ccc(S(=O)(=O)Oc2ccc3c(c2)C2(C)CCNCC2O3)cc1 (centres unmarked) [Example 766] | 500 to 1000 nM |

| SMILES | Ki |
| --- | --- |
| O=S(=O)(c1ccc2c3c(oc2c1)CNCC3)c1ccccc1Cl [Example 230] | < 500 nM |
| [O-][S+](c1ccc2c(c1)OC1CNCCC21)c1cccnc1F (centres unmarked) [Example 383] | > 1000 nM |
| O=S(=O)(Nc1ccc2c(c1)C1CCNCC1O2)c1ccc(Cl)cc1 (centres unmarked) [Example 823] | < 500 nM |
| CC1(C)NCCc2c1oc1cc(S(=O)(=O)c3cc(F)cc(F)c3)ccc21 [Example 293] | < 500 nM |
| O=S(=O)(c1cccc(F)c1)c1ccc2c3c(oc2c1)C1(CCOCC1)NCC3 [Example 43, 7-[(3-fluorophenyl)sulfonyl]-2′,3,3′,4,5′,6′-hexahydro-2H-spiro[1-benzofuro[2,3-c]pyridine-1,4′-pyran]] | < 500 nM |
| CC(=O)N1CCC2(CC1)NCCc1c2oc2cc(S(=O)(=O)c3cccc(F)c3)ccc12 [Example 41, 1-{7-[(3-fluorophenyl)sulfonyl]-3,4-dihydro-1′H,2H-spiro[1-benzofuro[2,3-c]pyridine-1,4′-piperidin]-1′-yl}ethanone] | < 500 nM |
| CC(=O)Nc1ccc(S(=O)(=O)c2ccc3oc4c(c3c2)CCNC4)cc1 [Example 272] | 500 to 1000 nM |
| O=S(=O)(c1cc(F)cc(F)c1)c1ccc2c3c(oc2c1)C1(CCOC1)NCC3 (centres unmarked) [Example 305] | < 500 nM |
| CC(=O)N1CCC2c3cc(NS(=O)(=O)c4cc(C)ccc4C)ccc3OC2C1 (centres unmarked) [Example 815] | > 1000 nM |
| O=S(=O)(c1cc(F)cc(OCC(F)(F)F)c1)c1ccc2c(c1)OC1CNCCC21 (centres unmarked) [Example 415] | < 500 nM |
| CC(C)Oc1cccc(S(=O)(=O)c2ccc3c4c(oc3c2)C2(CCOC2)NCC4)c1 (single isomer, unassigned) [Example 31, 7-{[3-(propan-2-yloxy)phenyl]sulfonyl}-3,4,4′,5′-tetrahydro-2H-spiro[1-benzofuro[2,3-c]pyridine-1,3′-furan]] | < 500 nM |
| CNC(=O)c1c(F)cccc1S(=O)(=O)c1ccc2c(c1)OC1CNCCC21 (centres unmarked) [Example 477] | > 1000 nM |
| O=S(=O)(c1ccc(F)c(Cl)c1)c1ccc2oc3c(c2c1)CCNC3 [Example 258] | < 500 nM |
| CC12CCNCC1Oc1cc(S(=O)(=O)c3cccc(F)c3)ccc12 (racemic) [Example 11, 7-[(3-fluorophenyl)sulfonyl]-4a-methyl-1,2,3,4,4a,9a-hexahydro[1]benzofuro[2,3-c]pyridine] | < 500 nM |
| O=S(=O)(c1cccc(Br)c1)c1ccc2c(c1)OC1CNCCC21 (centres unmarked) [Example 133] | < 500 nM |
| N#Cc1ccc(S(=O)(=O)c2ccc3oc4c(c3c2)CCNC4)cc1 [Example 271] | > 1000 nM |
| CC1OCCC12NCCc1c2oc2cc(S(=O)(=O)c3cccc(F)c3)ccc12 (single isomer, unassigned) [Example 58, 7-[(3-Fluorophenyl)sulfonyl]-2′-methyl-3,4,4′,5′-tetrahydro-2H-spiro[1-benzofuro[2,3-c]pyridine-1,3′-furan]] | < 500 nM |
| O=S(=O)(c1cncc(Cl)c1)c1ccc2c(c1)OC1CNCCC21 (centres unmarked) [Example 392] | < 500 nM |
| CC1(C)NCCc2c1oc1cc(S(=O)(=O)c3cc(Cl)c[n+]([O-])c3N)ccc21 [Example 371] | < 500 nM |
| O=S(=O)(c1ccc(Cl)c(Cl)c1)c1cccc2c1OC1CNCCC21 (centres unmarked) [Example 186] | < 500 nM |
| O=S(=O)(c1ccc2c(c1)OC1CNCCC21)c1cccnc1C(F)(F)F (centres unmarked) [Example 423] | < 500 nM |
| O=S(=O)(c1cccc(F)c1)c1ccc2c3c(oc2c1)C(CC(F)(F)F)NCC3 (centres unmarked) [Example 507] | < 500 nM |
| O=S(=O)(c1ccccc1)c1ccc2c3c(oc2c1)C(C(F)F)NCC3 (centres unmarked) [Example 523] | < 500 nM |
